{"source": "patent US11179412B2", "about": "“Methods of treating conditions involving elevated inflammatory response” (University of Pittsburgh—Of the Commonwealth System of …, priority 2017, dated 2021)", "key": {"[1]": {"tested_on": "STING activation (IFNβ release) in iBMDMs", "assay": "IFNβ release ELISA after STING ligand (or LPS) stimulation, iBMDMs", "assay_type": "cell-based, mouse", "in_short": "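IFNβ released into the medium was quantified by ELISA (mouse or human kit) after iBMDM stimulation with the canonical STING agonist 3′3′-cGAMP or with LPS.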"}, "[2]": {"tested_on": "STING activation (IFNβ release) in RAW264.7 cells", "assay": "IFNβ release ELISA, RAW264.7 cells", "assay_type": "cell-based, mouse", "conditions": "STING ligands 10 μg/ml, inhibitor 10 μM, 16 hours", "method": "(§1) Macrophages or monocytes were treated with 3′3′-cGAMP (10 μg/ml, Invitrogen) for 16 hours in the absence or presence of one compound (10 μM) from the Target-selective Inhibitory Library (#L3500, Selleck Chemicals). Commercially available enzyme-linked immunosorbent assay (ELISA) kits were used to measure the concentrations of mouse IFNβ (Thermo Fisher Scientific) or human IFNβ (Thermo Fisher Scientific) in culture medium according to the manufacturer's instructions."}, "[3]": {"tested_on": "STING activation (IFNβ release) in THP1 cells", "assay": "IFNβ release ELISA, THP1 cells", "assay_type": "cell-based, human", "conditions": "STING ligands 10 μg/ml, inhibitor 10 μM, 16 hours", "method": "as §1"}, "[4]": {"tested_on": "pPMs", "assay": "Cell viability assay (CCK-8), pPMs", "assay_type": "cell-based, mouse", "conditions": "3′3′-cGAMP 10 μg/ml, ALK inhibitor 10 μM, 16 hours", "method": "(§2) Cells were seeded into 96-well plates and incubated with the indicated treatments. Subsequently, 100 μl fresh medium was added to cells containing 10 μl Cell Counting Kit-8 (CCK-8) solutions (Dojindo Laboratories) and incubated for 1 h (37° C., 5% CO2). Absorbance at 450 nm was measured using a microplate reader (Tecan)."}, "[5]": {"tested_on": "THP1 cells", "assay": "Cell viability assay (CCK-8), THP1", "assay_type": "cell-based, human", "conditions": "3′3′-cGAMP 10 μg/ml, ALK inhibitor 10 μM, 16 hours", "method": "as §2"}, "[6]": {"tested_on": "STING signaling (TBK1, IRF3, p65 phosphorylation) in J774A.1 cells", "assay": "Western blot of STING pathway protein phosphorylation, J774A.1", "assay_type": "cell-based, mouse", "conditions": "10 μM", "method": "For immunoblotting, cells were lysed in Cell Lysis Buffer (#9803, Cell Signaling Technology) with protease inhibitor cocktail (Promega), phosphatase inhibitor cocktail (Sigma), and 1 mM Na3VO4 (70). Cleared lysates were resolved by SDS-PAGE (#3450124, Bio-Rad) and then transferred onto PVDF membranes (#1704273, Bio-Rad). The membranes were blocked with Tris-buffered saline Tween 20 (TBST) containing 5% skim milk for 1 h at room temperature and then incubated with the indicated primary antibodies (1:1000-1:5000) overnight at 4° C. After being washed with TBST, the membranes were incubated with an HRP-linked anti-mouse IgG secondary antibody (#7076, Cell Signaling Technology) or HRP-linked anti-rabbit IgG secondary antibody (#7074, Cell Signaling Technology) for 1 h at room temperature. The membranes were washed three times in TBST and then visualized and analyzed with a ChemiDoc Touch Imaging System (#1708370, Bio-Rad). The intensities of bands were analyzed with Image Lab software."}}, "note": "“Also recorded” adds a separate entry of the source.", "data": [{"smiles": "Cc1cc(Nc2ncc(Cl)c(Nc3ccccc3S(=O)(=O)C(C)C)n2)c(OC(C)C)cc1C1CCNCC1", "note": "[LDK378, 5-chloro-N^2-(2-isopropoxy-5-methyl-4-(piperidin-4-yl)phenyl)-N^4-[2-(propane-2-sulfonyl)-phenyl]-pyrimidine-2,4-diamine]", "values": [{"measurement": "fold increase in IFN-β release", "setting": "[1]", "value": 0.08, "unit": "fold"}, {"measurement": "3′3′-cGAMP-induced IFNβ release", "setting": "[1]; iBMDMs, 3′3′-cGAMP 10 μg/ml, 16 hours, compound 10 μM", "value": "blocked; also recorded: diminished"}, {"measurement": "LPS-induced IFNβ release", "setting": "[1]; iBMDMs, LPS 1 μg/ml, LDK378 10 μM, three hours", "value": "inhibited"}, {"measurement": "IFNβ release induced by STING ligands", "setting": "[1]; iBMDMs, STING ligands 10 μg/ml, inhibitor 10 μM, 16 hours", "value": "inhibited"}, {"measurement": "IFNβ release induced by STING ligands", "setting": "[2]", "value": "inhibited"}, {"measurement": "IFNβ release induced by STING ligands", "setting": "[3]", "value": "inhibited"}, {"measurement": "cell viability", "setting": "[4]", "value": "did not affect cell viability"}, {"measurement": "cell viability", "setting": "[5]", "value": "did not affect cell viability"}, {"measurement": "3′3′-cGAMP-induced p-TBK1", "setting": "[6]; 3′3′-cGAMP 10 μg/ml, three to 16 hours", "value": "time-dependently reduced"}, {"measurement": "3′3′-cGAMP-, c-di-AMP-, and DMXAA-induced p-IRF3 and p-p65", "setting": "[6]; ligand 10 μg/ml", "value": "inhibited"}, {"measurement": "c-di-AMP- or DMXAA-induced p-TBK1", "setting": "[6]; ligand 10 μg/ml, 16 hours", "value": "inhibited"}]}]}
